{"source": "patent US7932422B2", "about": "“Use of chlorine guanabenz derivatives for treating polyglutamine expansion associated diseases” (priority 2006, dated 2011)", "key": {"[1]": {"system": "293T cells"}, "[2]": {"system": "yeast prions", "type": "cell-based", "conditions": "erg6Δ [PSI+] yeast strain, compound spotted on filter, halo of red [psi-] colonies"}, "[3]": {"system": "aggregated Htt48 in 293T cells", "experiment": "filter retardation assay of lysates of Htt48-transfected 293T cells", "type": "cell-based", "conditions": "lysates 48 h post-transfection"}, "[4]": {"system": "full length endogenous Huntingtin in 293T cells", "experiment": "immunoblot of full length endogenous Huntingtin in 293T cells", "type": "cell-based", "conditions": "same extracts as for the N-terminal fragment", "experimental": "b: 293T cells were transfected with Htt48 and treated with the indicated compounds in DMSO at the indicated doses or DMSO alone 4 h posttransfection. SDS lysates collected 48 h post-transfection were analyzed on a 10% SDS-PAGE followed by immunoblot with Htt 2B4 and vimentin antibodies. To reveal full length Huntingtin, the same extracts were analyzed on a 4.5% SDS-PAGE followed by immunoblot PAGE followed by immunoblot with an oligoclonal mixture of Huntingtin antibodies: 2B4, 4C8 and 2E8.\n(§1) Psi114 and Cl-Psi114 reduce polyQ accumulation both in their soluble and insoluble form. In developing therapeutic approaches, targeting specifically the pathogenic fragment of Huntingtin is a fundamental concern because Huntingtin is an essential gene. The inventors tested the effect of active compounds on endogenous full length Huntingtin in the same extracts as tested for the N-terminal fragment of Huntingtin. Psi114 and Cl-Psi114 have no effect on the levels of full length endogenous Huntingtin in 293T cells while these 2 compounds effectively reduce accumulation of the N-terminal pathogenic fragment of Huntingtin (FIG. 1b). Cl-Psi114 has also no effect on the level of full length endogenous Huntingtin in HD patient lymphoblastoid cell line."}, "[5]": {"system": "truncated huntingtin with 73Q repeats (T73) in NG108-15 cells", "experiment": "NG108-15 neuronal-like cell model of HD, immunoblot of T73", "type": "cell-based", "conditions": "drugs added 12 h post-induction, extracts 3 days after treatment", "experimental": "(§2) NG108-15 cells were induced for differentiation and T73 expression as described in Lunkes et al, 2002 and treated with the indicated compounds in DMSO at the indicated doses or DMSO alone 12 h post-induction. SDS lysates collected […] were analyzed by SDS-PAGE followed by immunoblot with Htt 2B4 and vimentin antibodies. Images were acquired and quantified with the Chemi-Smart system (Vilber Lourmat). Quantification of T73 signals is presented as histograms. Signal from DMSO treated cells is used as a reference and set as 1.\nThe Guanabenz (Psi114) and Chloroguanabenz (Cl-Psi114) effects were so far tested in actively dividing yeast and 293T cells (Lunkes et al., 1998). Because neurons are the target of Huntington and the threat for accumulation of misfolded proteins being exacerbated in neuronal, post-mitotic cells, the inventors next tested the effect of Psi114 and Cl-Psi114 in NG10815 neuronal-like cell model of HD. NG108-15 cells were induced for expression of truncated huntingtin with 73Q repeats (T73) and differentiation.\nDrugs were added 12 h post-induction at the indicated doses. Protein extracts were collected 3 days after treatment and analyzed by immunoblots. […] The aggregates formed in these cells were below the detection level of the filter retardation assay precluding a robust quantitative analysis of the effects of the molecules on aggregate. […]"}, "[6]": {"system": "NG108-15 cells", "experiment": "vimentin level in NG108-15 neuronal-like cell model of HD", "type": "cell-based", "conditions": "drugs added 12 h post-induction, extracts 3 days after treatment", "experimental": "as §2\nDrugs were added 12 h post-induction at the indicated doses. Protein extracts were collected 3 days after treatment and analyzed by immunoblots. […] The aggregates formed in these cells were below the detection level of the filter retardation assay precluding a robust quantitative analysis of the effects of the molecules on aggregate. However, because both aggregates and pathological symptoms are reversible with blockade of pathological protein expression, it is likely that aggregates in NG108-15 cells will diminish as a consequence of decreased accumulation of T73 by treating neurons with Psi114 or Cl-Psi114."}, "[7]": {"system": "full length endogenous Huntingtin in HD patient lymphoblastoid cell line", "experiment": "full length endogenous Huntingtin in HD patient lymphoblastoid cell line", "type": "cell-based", "from_the_text": "as §1"}, "[8]": {"system": "N-terminal fragment of Huntingtin derivative with 48 glutamines (Htt48) in 293T cells", "experiment": "293T cells transfected with Htt48, immunoblot of SDS lysates with Htt 2B4 antibody", "type": "cell-based", "conditions": "for activity on Htt48 accumulation: 293T cells, up to 100 μM"}}, "note": "Entries after “also recorded” stand apart in the source; their conditions may differ. Where a name gives a salt, the structure may show the parent alone."}
{"compound": "C1COC(NC(C2CC2)C2CC2)=N1", "note": "[Psi215, Rilmenidine]", "values": [{"measurement": "toxicity", "setting": "[1]", "value": "some toxicity"}]}
{"compound": "N=C(N)N/N=C/c1c(Cl)cccc1Cl", "note": "[Psi114, Guanabenz]", "values": [{"measurement": "activity in the yeast anti-prion screen", "setting": "[2]", "value": "potent activity against yeast prions; also recorded: active in yeast cells"}, {"measurement": "levels of aggregated Htt48", "setting": "[3]", "value": "decrease in a dose dependent manner; also recorded: delayed"}, {"measurement": "effect on levels of full length endogenous Huntingtin", "setting": "[4]", "value": "no effect"}, {"measurement": "T73 level", "setting": "[5]", "value": "reduction of T73 in a dose dependant manner"}, {"measurement": "vimentin level", "setting": "[6]", "value": "remains unaltered"}]}
{"compound": "c1ccc(C2CC2)c(OCC2=NCCN2)c1", "note": "[Psi214, Cirazoline]", "values": [{"measurement": "toxicity", "setting": "[1]", "value": "some toxicity"}]}
{"compound": "N=C(N)N/N=C/c1c(Cl)ccc(Cl)c1Cl", "note": "[Cl-Psi114, Chloroguanabenz]", "values": [{"measurement": "activity in the yeast anti-prion screen", "setting": "[2]", "value": "active; also recorded: more active in the yeast anti-prion screen that Psi114"}, {"measurement": "levels of aggregated Htt48", "setting": "[3]", "value": "decrease in a dose dependent manner"}, {"measurement": "effect on levels of full length endogenous Huntingtin", "setting": "[4]", "value": "no effect"}, {"measurement": "effect on level of full length endogenous Huntingtin", "setting": "[7]", "value": "no effect"}, {"measurement": "T73 level", "setting": "[5]", "value": "reduction of T73 in a dose dependant manner"}, {"measurement": "vimentin level", "setting": "[6]", "value": "remains unaltered"}]}
{"compound": "Clc1cccc(Cl)c1N=C1NCCN1", "note": "[Psi211, Clonidine]", "values": [{"measurement": "activity on Htt48 accumulation", "setting": "[8]", "value": "completely inactive"}]}
{"compound": "CCC1(C2=NCCN2)Cc2ccccc2O1", "note": "(centres unmarked) [Psi216, Efaroxan]", "values": [{"measurement": "activity on Htt48 accumulation", "setting": "[8]", "value": "completely inactive"}]}
{"compound": "Nc1c(/N=N/c2ccc(-c3ccc(/N=N/c4cc(S(=O)(=O)O)c5ccccc5c4N)cc3)cc2)cc(S(=O)(=O)O)c2ccccc12", "note": "[Congo red]", "values": [{"measurement": "activity in the Htt48 293T system", "setting": "[8]; dose of 500 μM", "value": "barely detectable activity"}]}
{"compound": "N=C(N)N", "note": "[GuHCL, guanidine hydrochloride]", "values": [{"measurement": "activity in the yeast anti-prion screen", "setting": "[2]", "value": "positive control"}]}
